Here are results for eleven compounds from patent US20060063759A1, “Tricyclic steroid hormone nuclear receptor modulators” (priority 2002, published 2006).

The target of one data set is T1, human MR (Homo sapiens, UniProt P08235).
T1 construct: The full length human MR gene is cloned from a human kidney or human brain cDNA library; His tag from the pAcHLT vector (own knowledge); made in house; host or cells: Sf9 insect cells (baculovirus, pAcHLT transfer vector)
T1 sequence (P08235 1-984): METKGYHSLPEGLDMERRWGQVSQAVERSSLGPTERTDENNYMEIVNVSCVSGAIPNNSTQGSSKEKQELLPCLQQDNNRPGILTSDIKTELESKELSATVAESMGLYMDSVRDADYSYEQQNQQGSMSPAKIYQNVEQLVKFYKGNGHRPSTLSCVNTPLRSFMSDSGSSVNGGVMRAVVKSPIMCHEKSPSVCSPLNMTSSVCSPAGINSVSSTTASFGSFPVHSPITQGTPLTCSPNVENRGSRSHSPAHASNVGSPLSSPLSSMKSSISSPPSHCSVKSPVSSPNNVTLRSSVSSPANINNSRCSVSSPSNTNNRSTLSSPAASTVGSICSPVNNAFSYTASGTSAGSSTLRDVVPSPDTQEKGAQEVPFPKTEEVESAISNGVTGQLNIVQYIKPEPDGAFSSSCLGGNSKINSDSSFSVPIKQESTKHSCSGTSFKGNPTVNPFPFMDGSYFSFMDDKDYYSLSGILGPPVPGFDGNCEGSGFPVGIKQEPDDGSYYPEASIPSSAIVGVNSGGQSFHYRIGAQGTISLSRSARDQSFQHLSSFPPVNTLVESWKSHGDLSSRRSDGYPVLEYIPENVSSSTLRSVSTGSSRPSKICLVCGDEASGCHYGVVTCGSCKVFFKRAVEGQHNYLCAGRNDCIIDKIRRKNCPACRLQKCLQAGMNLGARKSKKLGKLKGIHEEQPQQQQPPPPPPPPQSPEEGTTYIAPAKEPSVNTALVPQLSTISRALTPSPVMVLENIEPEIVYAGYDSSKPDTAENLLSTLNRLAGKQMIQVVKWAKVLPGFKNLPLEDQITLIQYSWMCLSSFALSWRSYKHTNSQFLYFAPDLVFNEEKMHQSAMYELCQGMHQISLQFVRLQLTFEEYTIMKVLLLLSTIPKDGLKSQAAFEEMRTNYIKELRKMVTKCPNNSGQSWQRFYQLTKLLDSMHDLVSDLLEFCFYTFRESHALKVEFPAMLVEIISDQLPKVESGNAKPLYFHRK
Description: Mineralocorticoid Receptor Binding Assay ([3H]-aldosterone). The settings on record: [3H]-aldosterone binding, human MR expressed in Sf9 cells; read-out: MR Ki. In short, it runs like this: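 Receptor source: freeze-thaw lysate of baculovirus-infected Sf9 cells carrying full-length human MR, 20-25 μg protein. Incubation ~16 h at 4 °C with shaking, pH 7.5 buffer containing 30 mM sodium molybdate and 10% glycerol.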

The target in a further data set is T2, glucocorticoid receptor (Homo sapiens, UniProt P04150).
T2 construct: containing 50-200 ug of A549 cell extract and 1.86 nM [^3H]-dexamethasone; host or cells: A549 human lung epithelial cells (sonicated cell extract)
T2 sequence (P04150 1-777): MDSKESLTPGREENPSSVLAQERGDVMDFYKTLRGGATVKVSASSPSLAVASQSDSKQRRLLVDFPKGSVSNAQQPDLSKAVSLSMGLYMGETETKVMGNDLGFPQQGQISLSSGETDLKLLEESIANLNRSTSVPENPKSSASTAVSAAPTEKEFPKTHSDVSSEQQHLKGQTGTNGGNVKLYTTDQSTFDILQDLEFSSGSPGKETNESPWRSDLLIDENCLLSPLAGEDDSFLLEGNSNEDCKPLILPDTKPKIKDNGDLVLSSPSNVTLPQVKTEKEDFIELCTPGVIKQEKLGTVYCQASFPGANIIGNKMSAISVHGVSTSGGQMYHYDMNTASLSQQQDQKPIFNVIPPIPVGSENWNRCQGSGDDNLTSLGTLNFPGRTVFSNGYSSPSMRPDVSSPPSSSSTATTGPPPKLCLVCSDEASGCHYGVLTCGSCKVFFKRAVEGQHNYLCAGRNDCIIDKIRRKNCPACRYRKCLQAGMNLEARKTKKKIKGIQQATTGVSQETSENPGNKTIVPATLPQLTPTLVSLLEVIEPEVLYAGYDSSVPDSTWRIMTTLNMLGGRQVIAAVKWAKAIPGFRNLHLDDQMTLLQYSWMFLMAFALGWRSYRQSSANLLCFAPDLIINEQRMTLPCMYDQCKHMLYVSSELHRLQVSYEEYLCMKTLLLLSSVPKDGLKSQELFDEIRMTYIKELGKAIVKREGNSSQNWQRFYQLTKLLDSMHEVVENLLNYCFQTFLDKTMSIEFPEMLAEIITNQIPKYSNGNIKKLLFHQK
Description: Glucocorticoid Receptor Binding Assay ([3H]-dexamethasone, A549 cell extract). As to conditions: [3H]-dexamethasone binding, read-out: GR Ki. Summed up: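 Displacement of [3H]-dexamethasone (1.86 nM) from glucocorticoid receptor in sonicated A549 lung epithelial cell extracts, 16 h at 4 °C, pH 7.2 molybdate-containing buffer. Bound radioactivity was scintillation-counted after charcoal/dextran stripping of free ligand.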

The conditions of data set [1]: in combination with standard CHF therapy, patients suffering from advanced CHF; cited from earlier work.

Each structure is given as a SMILES string. A value given as a limit tells only on which side of the number the result lay.

One may read the Ki as a dissociation constant, usually derived from enzyme kinetics or from competition with a known ligand. By melting point is commonly meant the temperature of the solid-liquid transition. As for `O=C(Nc1ccc(C=C2c3ccccc3CCc3ccccc32)cc1)c1ccncc1` [Example 117, N-[4-(10,11-Dihydro-dibenzo[a,d]cyclohepten-5-ylidenemethyl)-phenyl]-isonicotinamide], the melting point came to 252.1 °C. For the same compound, the Ki on human MR was less than 500 nM. In addition, on glucocorticoid receptor, the Ki was less than 500 nM.

In turn, `Oc1cccc(CC2c3ccccc3CCc3ccccc32)c1` [Example 126, 3-(10,11-Dihydro-5H-dibenzo[a,d]cyclohepten-5-ylmethyl)-phenol] registered a melting point of 76.6 °C. For the same compound, at human MR, the Ki was less than 500 nM. Also, the Ki at glucocorticoid receptor is less than 500 nM.

The compound `Oc1cccc(C=C2c3ccccc3CCc3ccccc32)c1F` [Example 153, 3-(10,11-Dihydro-dibenzo[a,d]cyclohepten-5-ylidenemethyl)-2-fluoro-phenol] returned a melting point of 143.2 °C. For the same compound, at human MR, the Ki is less than 500 nM. Further, the Ki at glucocorticoid receptor was less than 1000 nM.

Take `CS(=O)(=O)Nc1cccc(C=C2c3ccc(Cl)cc3CCc3cc(Cl)ccc32)c1` [Example 182, N-[3-(2,8-Dichloro-10,11-dihydro-dibenzo[a,d]cyclohepten-5-ylidenemethyl)-phenyl]-methanesulfonamide]: the melting point was determined as 182.4 °C. At human MR, the Ki was less than 500 nM. The inhibition constant (Ki) on glucocorticoid receptor was less than 500 nM.

The compound `COc1ccc2c(c1)CCc1cc(OC)ccc1C2=Cc1cccc(NS(C)(=O)=O)c1` [Example 191, N-[3-(2,8-Dimethoxy-10,11-dihydro-dibenzo[a,d]cyclohepten-5-ylidenemethyl)-phenyl]-methanesulfonamide] showed a melting point of 109.6 °C. In addition, on human MR, the Ki is less than 500 nM. Besides, the inhibition constant Ki on glucocorticoid receptor was less than 500 nM.

In turn, `Oc1cccc(C=C2c3cccc(F)c3CCc3c(F)cccc32)c1` [Example 202, 3-(1,9-Difluoro-10,11-dihydro-dibenzo[a,d]cyclohepten-5-ylidenemethyl)-phenol] gave a melting point of 129.5 °C. For the same compound, the inhibition constant (Ki) at human MR is less than 500 nM. The inhibitory constant (Ki) at glucocorticoid receptor was less than 1000 nM.

`Oc1cccc(/C=C2/c3ccc(Cl)cc3CCc3cccnc32)c1` [Example 244, 3-(8-Chloro-5,6-dihydro-benzo[5,6]cyclohepta[1,2-b]pyridin-11-ylidenemethyl)-phenol] gave a melting point of 221.2 °C. On human MR, the inhibitory constant (Ki) was less than 500 nM. Also, the Ki on glucocorticoid receptor was less than 10000 nM.

The compound `Oc1cccc(/C=C2\c3ccc(Cl)cc3CCc3cccnc32)c1` [Example 245, 3-(8-Chloro-5,6-dihydro-benzo[5,6]cyclohepta[1,2-b]pyridin-11-ylidenemethyl)-phenol] had a melting point of more than 250 °C. On human MR, the Ki is less than 500 nM. Also, the Ki on glucocorticoid receptor was less than 10000 nM.

`CS(=O)(=O)Nc1cccc(C=C2c3ccccc3C3C(c4ccccc42)C3(Cl)Cl)c1` (centres unmarked) [Example 259, N-[3-(8,8-Dichloro-4-ylidenemethyl-2,3,5,6-dibenzobicyclo[5.1.0]octane)-phenyl]-methanesulfonamide]: the melting point was in the range of 199 to 201 °C. The inhibition constant (Ki) on human MR is less than 500 nM. Further, the Ki on glucocorticoid receptor is less than 10000 nM.

The compound `O=c1[nH]c2ccc(C=C3c4ccc(F)cc4CCc4cc(F)ccc43)cc2[nH]1` [Example 437, 5-(2,8-difluoro-10,11-dihydro-dibenzo[a,d]cyclohepten-5-ylidenemethyl)-1,3-dihydro-benzoimidazol-2-one] registered a melting point of 257 °C. In addition, the inhibition constant (Ki) at human MR is less than 500 nM. Moreover, the Ki at glucocorticoid receptor is less than 1000 nM.

`CC(=O)S[C@@H]1CC2=CC(=O)CC[C@]2(C)[C@H]2CC[C@@]3(C)[C@@H](CC[C@@]34CCC(=O)O4)[C@H]12` [spironolactone]: in data set [1], the “reduced cardiac related mortality” value is 30% and the “reduced frequency of hospitalization” value is listed as 35%.
